Data reported in patent publication US7625894B2, “Pyrrolo[2,3-d]Pyrimidines as Protein Tyrosine Kinase Inhibitors” (Novartis AG, priority 2004, dated 2009).

Columns and labels:
EGF-R (HER-1) = EGF-R (HER-1) (Homo sapiens, UniProt P00533); experiment: Inhibition of the tyrosine kinase activity of EGF-R (HER-1); format: biochemical; parameters: dose or concentration left out as unconfirmed
[1] = target: c-erbB2 tyrosine kinase (HER-2) (Homo sapiens, UniProt P04626); experiment: Inhibition of c-erbB2 tyrosine kinase (HER-2); format: biochemical; parameters: dose or concentration left out as unconfirmed
Excerpt: The inhibition of c-erbB2 tyrosine kinase (HER-2) can be measured, for example, in the same way as the inhibition of EGF-R protein kinase, using known procedures.

VEGF receptor (KDR) = target: T1, VEGF receptor (KDR) (Homo sapiens, UniProt P35968); experiment: Inhibition of VEGF-induced KDR-receptor autophosphorylation in transfected CHO cells; format: cell-based
T1 construct: expressed in transfected cells
T1 sequence (P35968 20-1356): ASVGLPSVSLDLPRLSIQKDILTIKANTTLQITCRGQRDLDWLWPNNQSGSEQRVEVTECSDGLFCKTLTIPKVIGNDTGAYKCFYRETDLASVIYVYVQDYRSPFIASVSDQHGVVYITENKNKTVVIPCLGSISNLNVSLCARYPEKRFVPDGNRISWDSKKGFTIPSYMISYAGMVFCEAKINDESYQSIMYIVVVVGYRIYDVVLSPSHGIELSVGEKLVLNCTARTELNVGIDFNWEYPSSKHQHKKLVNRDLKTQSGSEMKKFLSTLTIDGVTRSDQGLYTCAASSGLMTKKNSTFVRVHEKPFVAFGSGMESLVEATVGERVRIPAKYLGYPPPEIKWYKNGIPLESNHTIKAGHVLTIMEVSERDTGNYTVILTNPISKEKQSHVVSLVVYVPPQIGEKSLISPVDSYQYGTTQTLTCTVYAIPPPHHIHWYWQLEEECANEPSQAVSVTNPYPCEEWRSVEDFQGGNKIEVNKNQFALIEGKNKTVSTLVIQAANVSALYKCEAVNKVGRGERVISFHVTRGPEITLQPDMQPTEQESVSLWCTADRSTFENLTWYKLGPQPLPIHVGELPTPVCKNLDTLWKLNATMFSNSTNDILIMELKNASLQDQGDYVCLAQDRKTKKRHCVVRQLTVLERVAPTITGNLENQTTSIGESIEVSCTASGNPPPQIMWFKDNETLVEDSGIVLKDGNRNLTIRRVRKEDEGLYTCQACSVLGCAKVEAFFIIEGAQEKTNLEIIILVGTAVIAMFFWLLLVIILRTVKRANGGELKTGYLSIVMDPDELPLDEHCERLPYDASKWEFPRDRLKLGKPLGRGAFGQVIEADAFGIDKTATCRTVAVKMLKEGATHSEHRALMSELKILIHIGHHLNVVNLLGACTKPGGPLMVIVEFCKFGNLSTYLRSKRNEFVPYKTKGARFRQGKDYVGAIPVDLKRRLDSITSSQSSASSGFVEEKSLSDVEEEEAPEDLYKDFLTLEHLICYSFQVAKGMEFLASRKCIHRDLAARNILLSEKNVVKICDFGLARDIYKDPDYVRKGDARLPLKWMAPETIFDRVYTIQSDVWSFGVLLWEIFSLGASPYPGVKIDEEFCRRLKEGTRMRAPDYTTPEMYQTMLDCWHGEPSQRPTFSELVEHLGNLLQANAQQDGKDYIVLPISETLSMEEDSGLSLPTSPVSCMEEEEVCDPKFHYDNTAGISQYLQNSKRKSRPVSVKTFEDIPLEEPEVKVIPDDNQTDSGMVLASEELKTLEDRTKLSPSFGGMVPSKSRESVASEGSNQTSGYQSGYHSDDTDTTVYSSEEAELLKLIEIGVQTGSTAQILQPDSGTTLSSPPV
Method: The inhibition of VEGF-induced KDR-receptor autophosphorylation can be confirmed with a further in vitro experiment in cells: transfected CHO cells, which permanently express human VEGF receptor (KDR), are seeded in complete culture medium with 10% fetal calf serum (FCS) in 6-well cell-culture plates and incubated at 37° C. under 5% CO2 until they show about 80% confluency. The compounds to be tested are then diluted in culture medium (without FCS, with 0.1% bovine serum albumin) and added to the cells. (Controls comprise medium without test compounds). After two hours of incubation at 37° C., recombinant VEGF is added; the final VEGF concentration is 20 ng/mL). After a further five minute incubation at 37° C., the cells are washed twice with ice-cold PBS (phosphate-buffered saline) and immediately lysed in 100 μL lysis buffer per well. The lysates are then centrifuged to remove the cell nuclei, and the protein concentrations of the supernatants are determined using a commercial protein assay (BIORAD). The lysates can then either be immediately used or, if necessary, stored at −20° C.
A sandwich ELISA is carried out to measure the KDR-receptor phosphorylation: a monoclonal antibody to KDR (for example Mab 1495.12.14) is immobilized on black ELISA plates (OptiPlate™ HTRF-96 from Packard). The plates are then washed and the remaining free protein-binding sites are saturated with 1% BSA in PBS. The cell lysates (20 μg protein per well) are then incubated in these plates overnight at 4° C. together with an anti-phosphotyrosine antibody coupled with alkaline phosphatase (PY20: AP from Transduction Laboratories). […] The luminescence is measured in a Packard Top Count Microplate Scintillation Counter (Top Count). The difference between the signal of the positive control (stimulated with VEGF) and that of the negative control (not stimulated with VEGF) corresponds to VEGF-induced KDR-receptor phosphorylation (=100%). The activity of the tested substances is calculated as % inhibition of VEGF-induced KDR-receptor phosphorylation, wherein the concentration of substance that induces half the maximum inhibition is defined as the IC50 (effective dose for 50% inhibition).

Row | Compound | HER-1/ %-inh. [%] (EGF-R (HER-1)) | HER-2/%-inh. [%] [1] [%] | KDR (% inh) (VEGF receptor (KDR)) [%] | melting point [°C]
1 | CCCNc1ncnc2[nH]c(-c3ccc(C(=O)N4CCN(C)CC4)cc3)cc12 [Example 17, (4-Methyl-piperazin-1-yl)-[4-(4-propylamino-7H-pyrrolo[2,3-d]pyrimidin-6-yl)-phenyl]-methanone] | 95 | 87 | 81 | 302 to 305
2 | CN1CCN(C(=O)c2ccc(-c3cc4c(NCCCO)ncnc4[nH]3)cc2)CC1 [Example 15, {4-[4-(3-Hydroxy-propylamino)-7H-pyrrolo[2,3-d]pyrimidin-6-yl]-phenyl}-(4-methyl-piperazin-1-yl)-methanone] | 94 | 88 | 80 | 302 to 305
3 | CN1CCN(C(=O)c2ccc(-c3cc4c(N(C)C)ncnc4[nH]3)cc2)CC1 [Example 3, [4-(4-Dimethylamino-7H-pyrrolo[2,3-d]pyrimidin-6-yl)-phenyl]-(4-methyl-piperazin-1-yl)-methanone] | 59 | 78 | 85 | 275 to 277
4 | CN1CCN(Cc2ccc(-c3cc4c(N(C)C)ncnc4[nH]3)cc2)CC1 [Example 4, Dimethyl-{6-[4-(4-methyl-piperazin-1-ylmethyl)-phenyl]-7H-pyrrolo[2,3-d]pyrimidin-4-yl}-amine] | 64 | 87 | 86 | 252 to 254
5 | CN(C)c1ncnc2[nH]c(-c3ccc(C(=O)NCCCN4CCOCC4)cc3)cc12 [Example 7, 4-(4-Dimethylamino-7H-pyrrolo[2,3-d]pyrimidin-6-yl)-N-(3-morpholin-4-yl-propyl)-benzamide] | 59 | 71 | 79 | 260 to 262
6 | CN(C)c1ncnc2[nH]c(-c3ccc(C(=O)N4CCOCC4)cc3)cc12 [Example 6, [4-(4-Dimethylamino-7H-pyrrolo[2,3-d]pyrimidin-6-yl)-phenyl]-morpholin-4-yl-methanone] | 70 | 80 | 83 | 316 to 318
7 | CNc1ncnc2[nH]c(-c3ccc(CN4CCN(C)CC4)cc3)cc12 [Example 16, Methyl-{6-[4-(4-methyl-piperazin-1-ylmethyl)-phenyl]-7H-pyrrolo[2,3-d]pyrimidin-4-yl}-amine] | 94 | 93 | 85 | 
8 | CCCNc1ncnc2[nH]c(-c3ccc(CN4CCN(C)CC4)cc3)cc12 [Example 18, {6-[4-(4-Methyl-piperazin-1-ylmethyl)-phenyl]-7H-pyrrolo[2,3-d]pyrimidin-4-yl}-propyl-amine] | 98 | 94 | 83 | 232 to 234
9 | [4-(4-Methylamino-7H-pyrrolo[2,3-d]pyrimidin-6-yl)-phenyl]-morpholin-4-yl-methanone [Example 2] | 78 | 65 | 77 | 
10 | CCN(CC)CCCNC(=O)c1ccc(-c2cc3c(N(C)C)ncnc3[nH]2)cc1 [Example 5, N-(3-Diethylamino-propyl)-4-(4-dimethylamino-7H-pyrrolo[2,3-d]pyrimidin-6-yl)-benzamide] | 58 | 78 | 79 | 
11 | CNc1ncnc2[nH]c(-c3ccc(C(=O)N4CCN(C)CC4)cc3)cc12 [Example 12, [4-(4-Methylamino-7H-pyrrolo[2,3-d]pyrimidin-6-yl)-phenyl]-(4-methyl-piperazin-1-yl)-methanone] | 85 | 85 | 67 | 315

More lines, now with the values ahead:

Row | HER-1/ %-inh. [%] (EGF-R (HER-1)) | HER-2/%-inh. [%] [1] [%] | KDR (% inh) (VEGF receptor (KDR)) [%] | melting point [°C] | Compound
12 | 85 | 85 | 76 | 218 to 220 | CN(C)c1ncnc2[nH]c(-c3ccc(CNCCCO)cc3)cc12 [Example 28, 3-[4-(4-Dimethylamino-7H-pyrrolo[2,3-d]pyrimidin-6-yl)-benzylamino]-propan-1-ol]
13 | 54 | 57 | 66 | > 300 | CN(C)c1ncnc2[nH]c(-c3ccc(C(C)(C)O)cc3)cc12 [Example 34, 2-[4-(4-Dimethylamino-7H-pyrrolo[2,3-d]pyrimidin-6-yl)-phenyl]-propan-2-ol]
14 | 97 | 89 | 85 |  | CCCN(C)c1ncnc2[nH]c(-c3ccc(CN4CCN(C)CC4)cc3)cc12 [Example 19, Methyl-{6-[4-(4-methyl-piperazin-1-ylmethyl)-phenyl]-7H-pyrrolo[2,3-d]pyrimidin-4-yl}-propyl-amine]
15 | 90 |  | 76 | 280 to 283 | CNc1ncnc2[nH]c(-c3ccc(C(C)(C)O)cc3)cc12 [Example 35, 2-[4-(4-Methylamino-7H-pyrrolo[2,3-d]pyrimidin-6-yl)-phenyl]-propan-2-ol]
16 | 57 | 39 | 50 | 285 to 287 | CN(C)c1ncnc2[nH]c(-c3ccc(Cc4ccc[nH]4)cc3)cc12 [Example 25, Dimethyl-{6-[4-(1H-pyrrol-2-ylmethyl)-phenyl]-7H-pyrrolo[2,3-d]pyrimidin-4-yl}-amine]
17 | 79 | 79 | 76 | 157 to 158 | COCCN(C)Cc1ccc(-c2cc3c(N(C)C)ncnc3[nH]2)cc1 [Example 29, [6-(4-{[(2-Methoxy-ethyl)-methyl-amino]-methyl}-phenyl)-7H-pyrrolo[2,3-d]pyrimidin-4-yl]-dimethyl-amine]
18 | 83 | 75 | 58 | 275 to 278 | CN(C)c1ncnc2[nH]c(-c3ccc(Cn4cnnn4)cc3)cc12 [Example 27, Dimethyl-[6-(4-tetrazol-1-ylmethyl-phenyl)-7H-pyrrolo[2,3-d]pyrimidin-4-yl]-amine]
19 | 98 | 88 | 84 | 180 to 182 | CCC(O)(CC)c1ccc(-c2cc3c(NCCCn4cccc4)ncnc3[nH]2)cc1 [Example 33, 3-{4-[4-(3-Pyrrol-1-yl-propylamino)-7H-pyrrolo[2,3-d]pyrimidin-6-yl]-phenyl}-pentan-3-ol]
20 | 93 | 93 | 75 |  | CN(C)c1ncnc2[nH]c(-c3ccc(Cn4ccnc4)cc3)cc12 [Example 24, [6-(4-Imidazol-1-ylmethyl-phenyl)-7H-pyrrolo[2,3-d]pyrimidin-4-yl]-dimethylamine]
